Source: patent US7767694B2, “Pharmaceutical composition having prokinetic effect” (N-Gene Research Laboratories Inc., priority 2004, dated 2010)

System: sphincter of Oddi muscle rings
Assay: Biliary sphincter of Oddi muscle rings with cholecystokinin octapeptide and BGP-15 (isometric tension, organ bath)
Details: BGP-15 20 mg/kg daily for 5 days, CCK-8 5 × 10^−7 M, combination: BGP-15 pretreatment 5 days then CCK-8, average of 6
Description: The sphincter of Oddi was removed from adult male New Zealand white rabbits weighing 3.5-4 kg, and muscle ring of about 3 mm width were prepared. […] The organ bath was maintained at 37° C. and aerated continuously with carbogen (5% of carbon dioxide in oxygen according to European Pharmacopoeia, Edition III). The initial tension was set to 10 mN and the rings were allowed to equilibrate over 1 hour.
In case of each test type, 6 parallel experiments were carried out, and the average of the results obtained was determined. The following test types were made:
treatment with cholecystokinin octapeptide to simulate the effect existing in the living organism,
treatment with organ bath (control group).
In the treatment with cholecystokinin octapeptide, 5×10^-7 M of the polypeptide was employed.

Substance: Cholecystokinin octapeptide [CCK-8]
- Max. relaxation (control 0): 5 mN
- Max. tonic contraction (control 10): 24 mN
- Frequency of contraction (control 13): 19 c/min.
- Max. contraction (control 16): 29 mN
